Test results taken from patent publication US20010013317A1, “Medium for coloring live bait worms” (priority 1999, published 2001).
Values after ≈ are worked out from the molar mass of the structure shown. “Also recorded” adds a separate entry of the source.

Experiments:
live bait worms [1] = experiment: Coloring and viability of live bait worms kept in peat loam medium mixed with colorant (8 oz cup, 12 worms); type: in vivo; details: for Effectiveness as worm coloring agent (coloration of worms) / Worm viability / mortality: powdered colorant in peat loam, 8 oz cup, inspected at 24 hrs, 36 hrs, 3-4 weeks
Description: The inventor conducted numerous experiments to determine the effectiveness of a number of color additives to color live bait worms.
Experimental procedure. Each powdered colorant was mixed with peat loam medium and added to an 8 oz cup containing 12 healthy and natural worms. Concentrations given as mg colorant per 8 oz cup containing about 120 g peat loam. Worms were inspected for color and viability 24 hrs., 36 hrs., and when still viable, 3-4 weeks later.

live bait worms [2] = experiment: Incubation and storage of worms in bait cup topped with coloring medium; type: in vivo; details: 8-24 worms, 8 to 12 ounce cup, coloring medium 5 g colorant per kg, stored at 34° F. to 38° F.
Method: Alternatively, after the incubation, the above bulk colored worms can be divided into smaller amounts and stored in actual point-of-sale containers ready for use as bait by the end user rather than in bulk containers. For example, 8-24 of the worms previously colored in bulk as described above can be added to a normal 8 to 12 ounce Styrofoam, paper, or plastic bait cup and topped with the coloring medium (containing 5 g colorant D&C Yellow 8 per kg of the storage medium). When the container is capped with a lid and stored at 34° F. to 38° F., the worms will remain viable, and colored for about four to six weeks and are ready for immediate use as bait.
In another application of the process, the incubation and storage can be carried out in the same vessel. […]. In this case, the regular, uncolored, worms require an initial incubation period of about one week to lapsed before the worms acquire the desired color and intensity to be used as colored bait worms. The worms will then remain colored and viable in the bait cup of about four to six weeks. In both examples, the worms can be kept viable and colored indefinitely, if required, simply by changing the coloring medium once it has been consumed.

[3] = Solubility of colorant in water; details: at 25° C.
[4] = mg colorant per 8 oz cup containing about 120 g peat loam, 12 worms
[5] = 12 worms, listed as D&C Yellow No. 8

| SMILES | Effectiveness as worm coloring agent (coloration of worms) (live bait worms [1]; 12 worms) | Worm viability / mortality (live bait worms [1]; 12 worms) | Solubility in water [3] [mg/mL] | further results |
| --- | --- | --- | --- | --- |
| O=C([O-])c1c(Cl)c(Cl)c(Cl)c(Cl)c1-c1c2cc(Br)c(=O)c(Br)c-2oc2c(Br)c([O-])c(Br)cc12.[Na+].[Na+] [D & C Red 28] | Worms become pinkish | mg. Increased mortality |  | Concentration range in which worms become colored (live bait worms [1]; [4]): tration between 50-800 mg |
| O=C1OC2(c3ccc([O-])cc3Oc3cc([O-])ccc32)c2ccccc21.[Na+].[Na+] [D & C Yellow 8, uranine] | main bright Chartreuse | very healthy and viable |  | Time worms remain viable and colored in bait cup (live bait worms [2]): about four to six; Amount at which dye remains non-toxic to worms (live bait worms [1]; bait cup containing 12 worms): about 2500 mg/8 ounce bait cup; Amount at which dye remains non-toxic, per worm (live bait worms [1]; from 2500 mg/8 ounce cup with 12 worms): about 150 mg dye per worm; Concentration at which worms remain very healthy and viable (live bait worms [1]; [4]): centration of >2500 mg.; Lowest concentration at which worms become and remain colored (live bait worms [1]; [4]): ≤ 25 mg. Preferred range; Effectiveness as worm coloring agent (coloration of worms) (live bait worms [1]; [5]): intense fluorescent chartreuse color; Worm viability / mortality (live bait worms [1]; [5]): non-toxic to worms; also recorded: not detrimental to the viability of the worms |
| CCN(Cc1cccc(S(=O)(=O)[O-])c1)c1ccc(C(=C2C=CC(=[N+](CC)Cc3cccc(S(=O)(=O)[O-])c3)C=C2)c2ccccc2S(=O)(=O)[O-])cc1.[Na+].[Na+] [FD & C Blue 1] | main blue. Worms | viable if carefully |  |  |
| O=C1/C(=C2\Nc3ccc(S(=O)(=O)[O-])cc3C2=O)Nc2ccc(S(=O)(=O)[O-])cc21.[Na+].[Na+] [FD & C Blue 2] | No colorization. Worms | remain viable | 2 |  |
| COc1cc(S(=O)(=O)[O-])c(C)cc1N=Nc1c(O)ccc2cc(S(=O)(=O)[O-])ccc12.[Na+].[Na+] [FD & C Red 40] | No coloration. Worms | remain viable | 22 |  |
| O=C(O)c1nn(-c2ccc(S(=O)(=O)O)cc2)c(O)c1N=Nc1ccc(S(=O)(=O)O)cc1 [FD & C Yellow 5] | Color not retained. | Worms remain viable | 20 (≈ 42.7 mM) |  |
| O=S(=O)([O-])c1ccc(N=Nc2c(O)ccc3cc(S(=O)(=O)[O-])ccc23)cc1.[Na+].[Na+] [FD & C Yellow 6] | No coloration. Worms | remain viable |  |  |
